Laboratory results reported in US8106031B2, “Hydrolytically-resistant boron-containing therapeutics and methods of use” (Anacor Pharmaceuticals, Inc., priority 2006, dated 2012).
In brackets after ≈: the same amount, converted by molar mass. Read-outs that look alike come from different tables or passages of the source.

Key:
[1] = test system: Aspergillus fumigatus; assay: MIC against A. fumigatus (NCCLS broth dilution); type: cell-based; details: for MIC: Aspergillus fumigatus, read-out: Minimum inhibitory concentration, A. fumigatus
Description: (§1) To determine the antifungal activity of these compounds we screened for their minimum inhibitory concentrations (MIC) against the major dermatophytes that cause onychomycosis, T. rubrum and T. mentagrophytes, and against the yeasts and molds C. albicans, C. neoformans and A. fumigatus to test for their broad spectrum activity. The antifungal agent ciclopirox, currently in use for the topical treatment of onychomycosis, was used as a reference.
(§2) All MIC testing against Trichophyton rubrum, Trichophyton mentagrophytes, Candida albicans, Cryptococcus neoformans and Aspergillus fumigatus were determined following the National Committee for Clinical Laboratory Standards (NCCLS) guidelines for antimicrobial testing of yeasts and filamentous fungi.^i,ii
(§3) Two-fold serial dilutions of the test compounds were prepared in 96-well plates. […] Pfaller M A, Chaturvedi V, Espinel-Ingroff A, Ghannoum M A, Gosey L L, Odds F C, Rex J H, Rinaldi M G, Sheehan D J, Walsh T J, Warnock D W. NCCLS publication M27-A2—Reference Method for Broth Dilution Antifungal Susceptibility Testing of Yeasts; Approved Standard—Second Edition. […] Pfaller M A, Chaturvedi V, Espinel-Ingroff A, Ghannoum M A, Gosey L L, Odds F C, Rex J H, Rinaldi M G, Sheehan D J, Walsh T J, Warnock D W. NCCLS publication M38-A—Reference Method for Broth Dilution Antifungal Susceptibility Testing of Filamentous Fungi; Approved Standard.

[2] = test system: Cryptococcus neoformans; assay: MIC against C. neoformans (NCCLS broth dilution); type: cell-based; details: for MIC: Cryptococcus neoformans, read-out: Minimum inhibitory concentration, C. neoformans
Description: as §1, §2, §3

[3] = test system: Candida albicans; assay: MIC against C. albicans (NCCLS broth dilution); type: cell-based; details: for MIC: Candida albicans, read-out: Minimum inhibitory concentration, C. albicans
Description: as §1, §2, §3

[4] = test system: T. rubrum, T. mentagrophytes, C. albicans, C. neoformans and A. fumigatus; assay: MIC against the panel of fungi tested; type: cell-based; details: for fold less active than the corresponding oxaborole: 6-membered oxaborin vs 5-membered oxaborole (23a vs 9a, 23b vs 9b, 24 vs 19b); for fold increase in potency: 5-fluoro compound relative to its R^i = H analog (9b vs 9a, 10b vs 10a), strains tested
Description: MIC, or minimum inhibitory concentration, is the point where compound stops more than 90% of cell growth relative to an untreated control.
as §1, §2
Briefly, compounds were dissolved in DMSO and diluted in sterile water to give a working stock. Two-fold serial dilutions of the test compounds were prepared in 96-well plates. The plates were inoculated with the fungal suspensions to give a final inoculum size of 0.5−2.5×10^3 cells/mL for yeasts or 0.4−5×10^4 CFU/mL for filamentous fungi and then incubated for 24-168 h at 35° C. […] Pfaller M A, Chaturvedi V, Espinel-Ingroff A, Ghannoum M A, Gosey L L, Odds F C, Rex J H, Rinaldi M G, Sheehan D J, Walsh T J, Warnock D W. NCCLS publication M27-A2—Reference Method for Broth Dilution Antifungal Susceptibility Testing of Yeasts; Approved Standard—Second Edition. Wayne, P A: NCCLS; 2002 (Vol. 22, No. 15). • ii. Pfaller M A, Chaturvedi V, Espinel-Ingroff A, Ghannoum M A, Gosey L L, Odds F C, Rex J H, Rinaldi M G, Sheehan D J, Walsh T J, Warnock D W. NCCLS publication M38-A—Reference Method for Broth Dilution Antifungal Susceptibility Testing of Filamentous Fungi; Approved Standard. Wayne, P A: NCCLS; 2002 (Vol. 22, No. 16).

[5] = test system: Trichophyton rubrum; assay: MIC against T. rubrum (NCCLS broth dilution); type: cell-based; details: for MIC: Trichophyton rubrum, read-out: Minimum inhibitory concentration, T. rubrum
Description: as §1, §2, §3

[6] = test system: Trichophyton mentagrophytes; assay: MIC against T. mentagrophytes (NCCLS broth dilution); type: cell-based; details: for MIC: Trichophyton mentagrophytes, read-out: Minimum inhibitory concentration, T. mentagrophytes
Description: as §1, §2, §3

[7] = Penetration of the nail plate; type: in vitro ADME; details: result in words
[8] = LogP; type: physicochemical
Description: (§4) Further discussion, and assays for testing log P, molecular weight and water solubility are described in U.S. patent application Ser. Nos. 11/357,687 and 11/505,591, which are incorporated herein by reference.

[9] = Water solubility; type: physicochemical
Description: as §4

[10] = Plasma protein binding; type: in vitro ADME
[11] = Table 1, over 90% reduction of growth, 24-168 h at 35° C.
[12] = 24 h, Table 1, over 90% reduction of growth, 24-168 h at 35° C.

6-Fluoro-1-phenyl-1,2,3,4-tetrahydro-2,1-benzoxaborine [23a]
Minimum inhibitory concentration, A. fumigatus [1, 11]: 16 µg/mL
Minimum inhibitory concentration, C. neoformans [2, 11]: 16 µg/mL
Minimum inhibitory concentration, C. albicans [3, 11]: 8 µg/mL
fold less active than the corresponding oxaborole [4]: approximately 2 fold
Minimum inhibitory concentration, T. rubrum [5, 11]: 8 µg/mL
Minimum inhibitory concentration, T. mentagrophytes [6, 11]: 8 µg/mL

c1ccc(B2OCc3ccccc32)cc1 [9a, 1,3-Dihydro-1-phenyl-2,1-benzoxaborole]
MIC [1, 11]: 4 µg/mL (≈ 20.6 µM)
Minimum inhibitory concentration, A. fumigatus ([1]; Table 2, 1-phenyl series (9)): 4 µg/mL (≈ 20.6 µM)
MIC [2, 11]: 8 µg/mL (≈ 41.2 µM)
Minimum inhibitory concentration, C. neoformans ([2]; Table 2, 1-phenyl series (9)): 8 µg/mL (≈ 41.2 µM)
MIC [3, 11]: 4 µg/mL (≈ 20.6 µM)
Minimum inhibitory concentration, C. albicans ([3]; Table 2, 1-phenyl series (9)): 4 µg/mL (≈ 20.6 µM)
MIC values, range over the strains tested ([4]; all five fungi): 4 to 8 µg/mL
Minimum inhibitory concentration, T. rubrum ([5]; Table 2, 1-phenyl series (9)): 4 µg/mL (≈ 20.6 µM)
MIC [5, 11]: 4 µg/mL (≈ 20.6 µM)
Minimum inhibitory concentration, T. mentagrophytes ([6]; Table 2, 1-phenyl series (9)): 4 µg/mL (≈ 20.6 µM)
MIC [6, 11]: 4 µg/mL (≈ 20.6 µM)

Fc1ccc2c(c1)COB2c1ccccc1 [9b, 1,3-Dihydro-5-fluoro-1-phenyl-2,1-benzoxaborole]
MIC [1, 11]: 2 µg/mL (≈ 9.43 µM)
Minimum inhibitory concentration, A. fumigatus ([1]; Table 2, 1-phenyl series (9)): 2 µg/mL (≈ 9.43 µM)
MIC [2, 11]: 2 µg/mL (≈ 9.43 µM)
Minimum inhibitory concentration, C. neoformans ([2]; Table 2, 1-phenyl series (9)): 2 µg/mL (≈ 9.43 µM)
MIC [3, 11]: 0.5 µg/mL (≈ 2.36 µM)
Minimum inhibitory concentration, C. albicans ([3]; Table 2, 1-phenyl series (9)): 0.5 µg/mL (≈ 2.36 µM)
fold increase in potency [4]: 2-8 fold
Minimum inhibitory concentration, T. rubrum ([5]; Table 2, 1-phenyl series (9)): 1 µg/mL (≈ 4.72 µM)
MIC [5, 11]: 1 µg/mL (≈ 4.72 µM)
melting point: 90 to 99 °C
Minimum inhibitory concentration, T. mentagrophytes ([6]; Table 2, 1-phenyl series (9)): 2 µg/mL (≈ 9.43 µM)
MIC [6, 11]: 2 µg/mL (≈ 9.43 µM)

Fc1ccc2c(c1)COB2C=Cc1ccccc1 [10b, 1,3-Dihydro-5-fluoro-1-styryl-2,1-benzoxaborole]
MIC [1, 11]: 1 µg/mL (≈ 4.2 µM)
MIC [2, 11]: 0.5 µg/mL (≈ 2.1 µM)
MIC [3, 11]: 0.5 µg/mL (≈ 2.1 µM)
fold increase in potency [4]: 4-8 fold
MIC [5, 11]: ≤ 1 µg/mL
melting point: 84 to 86 °C
MIC [6, 11]: 2 µg/mL (≈ 8.4 µM)

CC1OB(O)c2ccc(F)cc21 (centres unmarked) [19c, 1,3-Dihydro-5-fluoro-1-hydroxy-3-methyl-2,1-benzoxaborolane]
Minimum inhibitory concentration, A. fumigatus [1, 11]: 16 µg/mL (≈ 96.4 µM)
Minimum inhibitory concentration, C. neoformans [2, 11]: 32 µg/mL (≈ 193 µM)
Minimum inhibitory concentration, C. albicans [3, 11]: 16 µg/mL (≈ 96.4 µM)
fold decrease in activity ([4]; 3-methyl compound relative to 19b): 8-32 fold
Minimum inhibitory concentration, T. rubrum [5, 11]: 32 µg/mL (≈ 193 µM)
Minimum inhibitory concentration, T. mentagrophytes [6, 11]: 16 µg/mL (≈ 96.4 µM)

c1ccc(B2OCCc3ccccc32)cc1 [23b, 1-Phenyl-1,2,3,4-tetrahydro-2,1-benzoxaborine]
MIC [1, 12]: 8 µg/mL (≈ 38.4 µM)
MIC [2, 12]: 8 µg/mL (≈ 38.4 µM)
MIC [3, 12]: 8 µg/mL (≈ 38.4 µM)
fold less active than the corresponding oxaborole [4]: 4-16 fold
MIC [5, 12]: 8 µg/mL (≈ 38.4 µM)
MIC [6, 12]: 8 µg/mL (≈ 38.4 µM)

Cc1cc(C2CCCCC2)n(O)c(=O)c1 [Ciclopirox, reference compound]
MIC [1, 11]: 1 µg/mL (≈ 4.82 µM)
MIC [2, 11]: 0.5 µg/mL (≈ 2.41 µM)
MIC [3, 11]: 0.5 µg/mL (≈ 2.41 µM)
MIC [5, 11]: 0.5 µg/mL (≈ 2.41 µM)
penetration of the nail plate [7]: penetrates the nail plate poorly
MIC [6, 11]: 0.5 µg/mL (≈ 2.41 µM)

Fc1ccc2c(c1)COB2c1ccccc1 [Compound 3]
penetration of the nail plate [7]: penetrates the nail plate poorly
logP ([8]; table of b228, read-out: eLogP): 3.55

Fc1ccc2c(c1)COB2c1cccnc1 [compound 15, 3-(1,3-Dihydro-5-fluoro-2,1-benzoxaborol-1-yl)pyridine]
MIC [1, 11]: 16 µg/mL (≈ 75.1 µM)
MIC [2, 11]: 16 µg/mL (≈ 75.1 µM)
MIC [3, 11]: 4 µg/mL (≈ 18.8 µM)
change in activity against C. albicans ([3]; relative to 9b, in words): no change in activity
fold decrease in activity against the dermatophytes ([4]; T. rubrum and T. mentagrophytes, relative to 9b): 16-64 fold
fold reduction in activity against C. neoformans and A. fumigatus ([4]; relative to 9b): 4 fold
MIC [5, 11]: 16 µg/mL (≈ 75.1 µM)
melting point: 210 to 212 °C
MIC [6, 11]: 32 µg/mL (≈ 150 µM)

OB1OCCc2cc(F)ccc21 [compound 24, 6-Fluoro-1-hydroxy-1,2,3,4-tetrahydro-2,1-benzoxaborine]
MIC [1, 11]: 32 µg/mL (≈ 193 µM)
MIC [2, 11]: > 64 µg/mL
MIC [3, 11]: 64 µg/mL (≈ 386 µM)
fold less active than the corresponding oxaborole [4]: 32-256 fold
MIC [5, 11]: 32 µg/mL (≈ 193 µM)
MIC [6, 11]: 32 µg/mL (≈ 193 µM)

OB1OCc2cc(F)ccc21 [drawing 88]
logP ([8]; read-out: LogP): 1.9
solubility [9]: > 100 µg/mL
fraction unbound [10]: 0.34

OB1OCc2cc(Cl)ccc21 [drawing 89]
logP ([8]; read-out: LogP): 2.3
solubility [9]: > 100 µg/mL
fraction unbound [10]: 0.17
